Each block holds one molecule with its values, some of them ahead of it.
Assays:
MES SA DXS = experiment: Proliferation assay, MES SA DXS cells; format: cell-based, human
Text: (§1) Cells: The human breast cancer cell lines MCF-7 and MCF-7 DX, were obtained from Dr. R. Supino (Laboratorio Oncologia, Milano, Italy); the murine 3LLD122 highly metastatic Lewis lung carcinoma cell line was obtained from Dr. Eisenbach L, the Weizmann Inst., Israel. The following cell lines were purchased from the ATCC, USA: CT-26, an N-nitroso-N-methylurethane-(NNMU) induced murine (BALB-C) colon carcinoma; Panc02, a mouse (C57/Bl) pancreas adenocarcinoma; HT-49, a human colorectal adenocarcinoma; LS1034, a multidrug resistant human colorectal carcinoma; BxPC-3 human pancreas adenocarcinoma; MES-SA and MES-SA-DXS, human uterine sarcoma sensitive and multidrug resistant, respectively; and Human prostate carcinoma 22RV1, a subclone of CWR22 cells.
(§2) The cells were maintained in DMEM growth medium supplemented with 10% heat inactivated fetal calf serum, 2 mM glutamine, penicillin (250 units/ml) and streptomycin (125 μg/ml) in a humidified 5% CO2/air atmosphere at 37° C.
(§3) Proliferation assay: cells at a density of 3-5×10^4 cells/ml in 200 μl medium supplemented with 10% FCS were seeded in tissue culture 96-well plates for 24 hours, and were then exposed for 72 hours to a novel derivative of a chemotherapeutic agent (in quadruplicate) as specified. After 3 days, the cells were rinsed with PBS, and fixed with ethanol (70%) for 30 minutes. The ethanol was thereafter discarded, 200 μl of 10 μg/ml HOECHST fluorescent dye (Sigma) solubilized in PBS were added and the fluorescence was measured at 390-460 nm with a FluoStar fluorometer. MTT solution (10 ml of 5 mg/ml MTT (Sigma) in PBS) was added, and the plate was incubated for 3 hours. Formazan crystals were dissolved with 140 ml of 0.04 HCl-isopropanol. The optical density of the wells was measured with a microplate reader at 540 nm.
(§4) IC50 and IC90 values were determined from the best-fitted curve where the percentages of survival were 50 or 90 respectively.

MCF-7 DX = experiment: Proliferation assay, MCF-7 DX cells; format: cell-based, human
Description: Cells: The human breast cancer cell lines MCF-7 and MCF-7 DX, were obtained from Dr. R. Supino (Laboratorio Oncologia, Milano, Italy); the murine 3LLD122 highly metastatic Lewis lung carcinoma cell line was obtained from Dr. Eisenbach L, the Weizmann Inst., Israel. […]
as §3, with “After 3 days, the cells were rinsed with PBS, and fixed with ethanol (70%) for 30 minutes.” left out, “MTT solution (10 ml of 5 mg/ml MTT (Sigma) in PBS) was added, and the plate was incubated for 3 hours. Formazan crystals were dissolved with 140 ml of 0.04 HCl-isopropanol.” left out
as §4

various cell lines = experiment: Dose response studies in various cell lines, absence and presence of semicarbazide; format: cell-based; conditions: 0.5 mM, absence of chemotherapeutic agents
Description: as §3
Semicarbazide sensitive amine oxidase is a source of formaldehyde and is therefore a marker for the effect of formaldehyde. It has been shown that semicarbazide traps formaldehyde and reduces its concentration inside the cell (Nudelman et al. J. Med. Chem., 2005, 48, 1047-1054). Thus, the critical role of formaldehyde can be confirmed by reversal of formaldehyde-mediated effects by the addition of semicarbazide.
Tables 3 and 4 below, as well as FIGS. 7A, 7B and 8A-8D present the dose response studies performed with various cell lines in the absence and presence of semicarbazide, the formaldehyde trapping agent.

HT-29 = experiment: Proliferation assay, HT-29 cells; format: cell-based, human; conditions: Homo sapiens
[1] = test system: sensitive and resistant uterine cancer cells (MES-SA, MES-SA DXS); experiment: Proliferation/survival, sensitive and resistant uterine cancer cells (both lines); format: cell-based, human
Text: as §1, §3, §4

CT-26 = experiment: Proliferation assay, CT-26 cells; format: cell-based, murine; conditions: Mus musculus, CT26; CT-26
Text: as §1, §2, §3, §4

[2] = test system: HT-29 human colon carcinoma; experiment: Xenograft flank colon carcinoma model, HT29; format: in vivo; conditions: nude mice
Description: Xenograft flank colon carcinoma models: Eight weeks old, male CD1 nude mice (Harlan, Israel) were inoculated sc in the flanks with 5×10^6 HT29 or LS1034 cells. When tumor volume reached 50-100 mm^3, treatment with derivatives of chemotherapeutic agents according to the present embodiments commenced and was given by gavage five times a week for the duration of the experiment at the specified doses. Tumor volume (determined by caliper) and body weights were measured twice weekly. Tumor volume was measured (mm) using the formula for an ellipsoid sphere: Length×Width^2/2=Volume (mm)^3 This commonly used formula was also used to calculate tumor weight, assuming unit density (1 mm^3=1 mg). Serum PSA or CEA: […] At the end of the experiment blood samples were drawn from the eyes of mice (anesthetized slightly by inhalation of ether) or from the hearts of sacrificed animals.

LS-1034 = experiment: Proliferation assay, LS-1034 cells; format: cell-based, human; conditions: Homo sapiens
Text: as §1, §2, §3, §4

BXPC-3 = experiment: Proliferation assay, BXPC-3 cells; format: cell-based, human; conditions: Homo sapiens
Text: as §1, §2, §3, §4

Panc 02 = experiment: Proliferation assay, Panc 02 cells; format: cell-based; conditions: Mus musculus, Panc02
Text: as §1, §2, §3, §4

MES SA = experiment: Proliferation assay, MES SA cells; format: cell-based, human; conditions: Homo sapiens
Text: as §1, §2, §3, §4

colon carcinoma cells = experiment: Viability of colon carcinoma cells (FIG. 12); format: cell-based
Description: as §3
Apoptosis assay: Cells (2×10^5 cells/ml) were seeded in 24-well plates and incubated with a derivative of a chemotherapeutic agent according to the present embodiments, as specified, for 24 hours. The cells were thereafter collected and double-stained with annexin V-FITC and propidium iodide, according to the manufacturer's instructions (MBL, Japan). Alive, apoptotic and total dead cells were quantitated by flow cytometry using a FACS calibur cytometer (Becton Dickinson).

- IC50 (MCF-7 DX; Homo sapiens, MCF7/DX, MCF-7 DX, 7 independent experiments): 392 ± 40 µM
SMILES: COc1cccc2c1C(=O)c1c(O)c3c(c(O)c1C2=O)C[C@@](O)(C(=O)CO)C[C@@H]3O[C@H]1C[C@H](N)[C@H](O)[C@H](C)O1 [Doxorubicin]
- fold decrease in the inhibitory effect on proliferation, MES-SA DXS compared with the isogenetic non-resistant cell line (MES SA DXS): approximately 30 fold
- fold more resistant to doxorubicin, MCF-7 DX compared with MCF cells (MCF-7 DX): approximately 7 fold

SMILES: NNC(N)=O [Semicarbazide, semicarbazide, reference compound]
- effect of semicarbazide alone on the cells (various cell lines): did not affect the cells

- IC90 (HT-29; HT-29): 747 ± 52 µM
- IC50 (HT-29; HT-29, HT-29): 201 ± 15 µM
- IC50 (BXPC-3): 172 ± 21 µM
- IC90 (BXPC-3): 688 ± 113 µM
- IC50 (Panc 02): 179 ± 25 µM
- IC90 (Panc 02): 637 ± 66 µM
SMILES: O=c1[nH]c(=O)n(C2CCCO2)cc1F (stereo not shown) [Tegafur, tegafur, reference compound]
- maximal cell killing achieved [1]: 80%
- IC50 (CT-26): 136 ± 19 µM
- IC90 (CT-26): 411 ± 23 µM
- CEA level in serum [2]: higher
- tumor growth inhibition ([2]; P<<0.001): substantially inhibited tumor growth
- IC50 (MES SA DXS; Homo sapiens, MES SA DXS): 405 ± 20 µM
- IC90 (MES SA DXS; Homo sapiens, MES SA DXS, tegafur value calculated by extrapolation from the best fitted curve): 1470 ± 96 µM
- IC90 (LS-1034; LS-1034): 1600 ± 240 µM
- IC50 (LS-1034; LS-1034, LS-1034): 519 ± 93 µM
- IC50 (MES SA): 337 ± 20 µM
- IC90 (MES SA; tegafur value calculated by extrapolation from the best fitted curve): 1200 ± 97 µM

SMILES: O=c1cc[nH]c(=O)[nH]1 [uracil, reference compound]
- effect on cancer cell viability (% of control) (colon carcinoma cells): no effect

— patent US20070293517A1, “Derivatives Of Chemotherapeutic Agents With A Formaldehyde Releasing Moiety” (RAMOT AT TEL AVIV UNIVERSITY LTD., priority 2004, published 2007)
